The values below come from patent US6548549B1, “Acylaminosalicylic acid amides and their uses as pesticides” (Bayer Aktiengesellschaft, priority 1995, dated 2003).

The subject of one series is Botrytis cinerea. As to the kind of experiment: Botrytis test (beans)/protective. In kind it is in vivo. Particulars: protective, 500 ppm active compound, lesion size 3 days after inoculation. As for the experimental part:
Botrytis Test (Beans)/Protective Solvent: 4.7 parts by weight of acetone Emulsifier: 0.3 part by weight of alkylaryl polyglycol ether To produce a suitable preparation of active compound, 1 part by weight of active compound is mixed with the stated amounts of solvent and emulsifier, and the concentrate is diluted with water to the desired concentration. To test for protective activity, young plants are sprayed with the preparation of active compound. After the spray coating has dried on, 2 small pieces of agar covered with Botrytis cinerea are placed on each leaf. The inoculated plants are then placed in a darkened humid chamber at 20° C. 3 days after the inoculation, the size of the lesions on the leaves is evaluated.

A further series has as its system Sphaerotheca fuliginea. As to the kind of experiment: Sphaerotheca test (cucumber)/protective. In kind it is in vivo. As to conditions: protective, 100 ppm active substance, evaluation 10 days after inoculation. The method, then: Sphaerotheca Test (Cucumber)/Protective Solvent: 4.7 parts by weight of acetone Emulsifier: 0.3 part by weight of alkylaryl polyglycol ether To produce a suitable preparation of active compound, 1 part by weight of active compound is mixed with the stated amounts of solvent and emulsifier, and the concentrate is diluted with water to the desired concentration. To test for protective activity, young plants are sprayed with the preparation of active compound. After the spray coating has dried on, the plants are dusted with conidia of the fungus Sphaerotheca fuliginea. The plants are then placed in a greenhouse at 23 to 24° C. and at a relative atmospheric humidity of about 75%. Evaluation is carried out 10 days after the inoculation.

The subject of series [1] is Pseudocercosporella herpotrichoides. Nature of the series: Pseudocercosporella herpotrichoides test (wheat)/protective. Particulars: protective, application rate 250 g/ha, evaluation 21 days after inoculation. In kind it is in vivo. As for the experimental part:
Pseudocercosporella herpotrichoides Test (Wheat)/Protective Solvent: 10 parts by weight of N-methyl-pyrrolidone Emulsifier: 0.6 part by weight of alkylaryl polyglycol ether To produce a suitable preparation of active compound, 1 part by weight of active compound is mixed with the stated amounts of solvent and emulsifier, and the concentrate is diluted with water to the desired concentration. To test for protective activity, young plants are sprayed with the preparation of active compound at the rate of application shown. After the spray coating has dried on, the stem base of the plants is inoculated with spores of Pseudocercosporella herpotrichoides. […] Evaluation is carried out 21 days after the inoculation.

The subject of another series is Pyricularia oryzae. In kind it is in vivo. Particulars: rice, protective, active compound concentration 0.05%, evaluation 4 days after inoculation.
In series [2] the test system is larvae of the green rice leafhopper (Nephotettix cincticeps). Nature of the series: Nephotettix test. In kind it is in vivo. As to conditions: rice seedlings dipped, active compound concentration 0.001%, after 7 days. As for the experimental part: Nephotettix Test Solvent: 7 parts by weight of dimethylformamide Emulsifier: 1 part by weight of alkylaryl polyglycol ether To produce a suitable preparation of active compound, 1 part by weight of active compound is mixed with the stated amount of solvent and the stated amount of emulsifier, and the concentrate is diluted with water to the desired concentration. Rice seedlings (Oryza sativa) are treated by being dipped into the preparation of the active compound of the desired concentration and populated with larvae of the green rice leafhopper (Nephotettix cincticeps) while the seedlings are still moist. After the specified period of time, the destruction in % is determined. 100% means that all the leafhoppers have been killed; 0% means that none of the leafhoppers have been killed.

The subject of series [3] is caterpillars of the fall armyworm Spodoptera frugiperda. As to the kind of experiment: Spodoptera test. In kind it is in vivo. As to conditions: cabbage leaves dipped, concentration 0.1%, after 7 days. As for the experimental part:
Spodoptera Test Solvent: 7 parts by […]: 1 part by weight of alkylaryl polyglycol ether To produce a suitable preparation of active compound, 1 part by weight of active compound is mixed with the stated amount of solvent and the stated amount of emulsifier, and the concentrate is diluted with water to the desired concentration. Cabbage leaves (Brassica oleracea) are treated by being dipped into the preparation of the active compound of the desired concentration and are populated with caterpillars of the fall armyworm Spodoptera frugiperda while the leaves are still moist. After the specified period of time, the activity in % is determined. 100% means that all the caterpillars have been killed; 0% means that none of the caterpillars have been killed.

Series [4] has as its system mustard beetle larvae (Phaedon cochleariae). Nature of the series: Phaedon larvae test. In kind it is in vivo. Particulars: cabbage leaves dipped, active compound concentration 0.01%, after 7 days. As for the experimental part:
Phaedon Larvae Test Solvent: 7 parts by weight of dimethylformamide Emulsifier: 1 part by weight of alkylaryl polyglycol ether To produce a suitable preparation of active compound, 1 part by weight of active compound is mixed with the stated amount of solvent and the stated amount of emulsifier, and the concentrate is diluted with water to the desired concentration. Cabbage leaves (Brassica oleracea) are treated by being dipped into the preparation of the active compound of the desired concentration and are populated with mustard beetle larvae (Phaedon cochleariae) while the leaves are still moist. After the specified period of time, the destruction in % is determined. 100% means that all the beetle larvae have been killed; 0% means that none of the beetle larvae have been killed.

As for `O=CNc1cccc(C(=O)Nc2ccc(-c3ccccc3)cc2)c1O` [Example 2, 3-formamido-2-hydroxy-N-(4-phenylphenyl)-benzamide], the melting point worked out at 190 °C. The efficacy in the series with Botrytis cinerea was determined as 90%.

`CC(NC(=O)c1cccc(NC=O)c1O)c1ccc(F)cc1` (stereo not drawn) [Example 3, 3-formamido-2-hydroxy-N-[1-(4-fluorphenyl)-ethyl)-benzamide]: the efficacy in the series on Botrytis cinerea came to 90%.

In the series with Botrytis cinerea, `O=CNc1cccc(C(=O)Nc2ccc(Oc3ccc(Cl)cc3)c(Cl)c2)c1O` [Example 4] registered an efficacy of 90%.

As to `O=CNc1cccc(C(=O)Nc2ccc(Oc3cccc(C(F)(F)F)c3)cc2)c1O` [Example 5], the efficacy entry in the series on Sphaerotheca fuliginea is on record as “over 80%”; in series [1] it was “over 80%”; in the series with Botrytis cinerea, 90%; in the series with Pyricularia oryzae it was “over 80%”.

On to `COc1cccc(C(C)NC(=O)c2cccc(NC=O)c2O)c1` (stereo not drawn) [Example 10], for which the efficacy with Botrytis cinerea stood at 90%.

`CC(NC(=O)c1cccc(NC=O)c1O)c1ccc(Cl)cc1Cl` (stereo not drawn) [Example 15] returned an efficacy in the series with Botrytis cinerea of 90%.

Molecule `CCc1ccc(C(C)NC(=O)c2cccc(NC=O)c2O)cc1` (stereo not drawn) [Example 16] yielded an efficacy in the series on Botrytis cinerea of 90%.

For `O=CNc1cccc(C(=O)NCc2ccc(F)cc2)c1O` [Example 35], the destruction in series [2] is on record as 100%.

For the molecule `O=CNc1cccc(C(=O)NCc2cccc(C(F)(F)F)c2)c1O` [Example 39], in series [2], the destruction is recorded as 100%.

The molecule `CCc1ccc(-c2ccc(CCNC(=O)c3cccc(NC=O)c3O)cc2)cc1` [Example 47] returned a destruction rate in series [3] of 85%. The molecule also gave a destruction in series [4] of 100%.

With `CC(NC(=O)c1cccc(NC=O)c1O)C1CC=CCC1` (stereo not drawn) [Example 71], the destruction in series [2] turned out to be 100%.

Regarding `CC(NC(=O)c1cccc([N+](=O)[O-])c1OCc1ccccc1)c1cccc(C(F)(F)F)c1` (stereo not drawn) [Example V-34], the destruction in series [4] was determined as 100%.

`O=C(Nc1ccc(-c2ccccc2)cc1)c1cccc([N+](=O)[O-])c1O` [IV-a-1, 3-nitro-2-hydroxy-N-(4-phenyl-phenyl)-benzamide] had a melting point of 152 °C.

By melting point is commonly meant the temperature, or range, at which the solid turns liquid.
